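Test compounds were applied to cells in 96-well plates for 48 hours at 5 doses. GI50 is the concentration that inhibits growth by half.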 The source made the active and inactive calls. Cut-off read from the data, not from the text of the source: active = GI50 up to about 1.1 µM and inactive = higher.
Experiments:
Experiment in all cases: inhibition of tumour cell growth, NCI panel, 48 h
LOX IMVI = test system: LOX IMVI
Malme-3M = test system: Malme-3M
IGROV-1 = test system: IGROV-1
RPMI-8226 = test system: RPMI-8226
786-0 = test system: 786-0
A549 = test system: A549
UACC-257 = test system: UACC-257
NCI-H522 = test system: NCI-H522
CAKI-1 = test system: CAKI-1
UACC-62 = test system: UACC-62
HOP-62 = test system: HOP-62
SF-295 = test system: SF-295
HOP-92 = test system: HOP-92
KM12 = test system: KM12
SR = test system: SR
OVCAR-4 = test system: OVCAR-4
SK-MEL-5 = test system: SK-MEL-5

Measured: GI50

CC/C(SC)=[N+](\C)[O-]
inactive: LOX IMVI > 41.3 µM | Malme-3M > 100 µM | IGROV-1 > 100 µM | RPMI-8226 > 93.1 µM | 786-0 > 100 µM | A549 > 100 µM | UACC-257 > 100 µM | NCI-H522 > 43.1 µM | CAKI-1 > 100 µM | UACC-62 > 100 µM | HOP-62 > 100 µM | SF-295 > 100 µM | HOP-92 > 100 µM | KM12 > 100 µM | SR 25.8 µM | OVCAR-4 > 100 µM | SK-MEL-5 > 100 µM

O=C1C2C3C=CC(C2C(=O)N1CO)C1C2C(=O)N(CO)C(=O)C2C31 (stereo not drawn)
inactive: LOX IMVI > 45 µM | Malme-3M > 100 µM | IGROV-1 > 100 µM | RPMI-8226 21.8 µM | 786-0 > 44 µM | A549 > 54.2 µM | UACC-257 > 100 µM | NCI-H522 > 100 µM | CAKI-1 > 100 µM | UACC-62 > 100 µM | HOP-62 > 100 µM | SF-295 > 100 µM | HOP-92 > 100 µM | KM12 > 74.3 µM | SR 22.5 µM | OVCAR-4 > 45.8 µM | SK-MEL-5 > 83 µM

O=C(CCc1nnc2s/c(=C\c3ccccc3Cl)c(=O)n12)Nc1cc(Cl)ccc1Cl
inactive: LOX IMVI > 100 µM | Malme-3M > 100 µM | IGROV-1 > 100 µM | RPMI-8226 > 100 µM | 786-0 > 100 µM | A549 > 100 µM | UACC-257 > 100 µM | NCI-H522 > 100 µM | CAKI-1 > 100 µM | UACC-62 > 100 µM | HOP-62 > 100 µM | SF-295 > 100 µM | HOP-92 > 100 µM | KM12 > 100 µM | SR > 100 µM | OVCAR-4 > 100 µM | SK-MEL-5 > 100 µM

CC1CC(c2ccc(Cl)c(Cl)c2)=Nc2ccccc2S1 (stereo not drawn)
inactive: LOX IMVI > 100 µM | Malme-3M > 100 µM | IGROV-1 > 100 µM | RPMI-8226 > 100 µM | 786-0 > 100 µM | A549 > 100 µM | UACC-257 > 100 µM | NCI-H522 > 100 µM | CAKI-1 > 100 µM | UACC-62 > 100 µM | HOP-62 > 100 µM | SF-295 > 100 µM | HOP-92 > 100 µM | KM12 > 100 µM | SR 46 µM | OVCAR-4 > 100 µM | SK-MEL-5 > 100 µM
